From US7253286B2, “Nitrogen-containing aromatic derivatives” (Eisai Co., Ltd, priority 2000, dated 2007) come the findings set out here.

The subject of assay [1] is Human Umbilical Vein Endothelial Cells (HUVECs). The assay can be described thus: Inhibition against invasive tube formation by vascular endothelial cells in response to stimulation by angiogenic factor mixture. To be noted: HUVEC on fibrin gel, EGF/FGF2/VEGF/HGF/TNF-α mixture, 6th day, MTT staining; for number of tubes formed in the fibrin gel (score) at 0.01 μM: test substance 0.01 μM; for number of tubes formed in the fibrin gel (score) at 0.1 μM: test substance 0.1 μM; for number of tubes formed in the fibrin gel (score) at 1.0 μM: test substance 1.0 μM. On the set-up: key: the number of tubes formed in the absence of the test substance was designated as +++; scored on the 5-level scale of +++, ++, +, +/−, −; scored on the 5-level scale of +++, ++, +, +/−, −; scored on the 5-level scale of +++, ++, +, +/−, −; − was assigned if absolutely no tubes formed. It counts as cell-based. How it is done:
Inhibition Against Invasive Tube Formation by Vascular Endothelial Cells in Response to Stimulation by Angiogenic Factor Mixture
Human Umbilical Vein Endothelial Cells (HUVECs) were isolated according to a reported method (Shinseikagaku Jikken Koza [New Biochemistry Experiment Lectures], “Saibo Baiyo Gijutsu” [Cell Culturing Techniques], p.197–202), and were cultured in a 5% CO2 incubator (37° C.) using EGM-2 medium (purchased from Clonetics Corp.) until the cells reached confluency. After adding 0.4 ml of bovine fibrinogen (purchased from Sigma Co.) to the inner well of a Transwell culturing plate (purchased from Coster Inc.), it was hardened with 0.7 units/ml of thrombin (purchased from Sigma Co.). The HUVECs were recovered using trypsin-EDTA and then suspended in human endothelial serum free medium basal growth medium (hereinafter abbreviated as SFM, purchased from GIBCO BRL), and 0.4 ml of the cell suspension (1.4×10^5 cells) was seeded onto the hardened fibrin gel and cultured for approximately 4 hours in a 5% CO2 incubator (37° C.). After 4 hours, there was added to the outer chamber of the Transwell 1.5 ml of an SFM solution containing a mixture of angiogenic factors {10 ng/ml EGF (purchased from GIBCO BRL), 30 ng/ml FGF2 (purchased from GIBCO BRL), 75 ng/ml VEGF (purchased from Wako Pure Chemical Industries Co., Ltd.), 50 ng/ml HGF (purchased from R&D Co.) and 7.5 ng/ml TNF-α (purchased from Genzyme Corp.) [The concentrations of the angiogenic factors differed slightly according to the HUVEC lot.]} and a diluted test substance, and culturing was carried out in a 5% CO2 incubator (37° C.). On the 2nd and 4th days after adding the test substance, the medium was exchanged with 1.5 ml of freshly prepared SFM solution containing the angiogenic factor mixture and test substance. Upon aspirating off the culture supernatant in the inner well on the 6th day after the initial addition of the test substance, 0.4 ml of a 3.3 mg/ml MTT solution dissolved in PBS (purchased from Sigma Corp.) was added and culturing was performed for approximately 1 hour in a 5% CO2 incubator (37° C.). The number of tubes formed in the fibrin gel stained with MTT was scored based on microscope observation. Specifically, the number of tubes formed in the absence of the test substance was designated as +++, while − was assigned if absolutely no tubes formed. The number of tubes formed in the presence of the test substance was scored on the 5-level scale of +++, ++, +, +/−, − to evaluate the strength of inhibition of the test substance.

Another assay has as its target T1, VEGFR2 (Homo sapiens, UniProt P35968).
T1 construct: coding for the cytoplasmic domain, beginning with lysine 791 and including the termination codon; made in house; host or cells: Sf9 insect cells (baculovirus, pFastBacHis)
The assay can be described thus: Inhibition against VEGFR2 kinase (receptor tyrosine kinase activity, HTRF method). It counts as biochemical. To be noted: His6-VEGFR2 cytoplasmic domain, biotin-poly(GT) substrate, ATP, 30° C. 10 minutes, read-out: IC50 (concentration required for 50% inhibition of VEGFR2 kinase activity). In outline: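 Construct: His6-tagged VEGFR2 cytoplasmic domain (from Lys791), expressed in Sf9 cells. Kinase step: biotin-poly(Glu4:Tyr1) substrate, ATP added as 10 μl of 4 μM, Hepes pH 7.4 with Mg2+/Mn2+, 30 °C for 10 min, EDTA stop. Phosphotyrosine product measured by HTRF.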
On the technique in general: TR-FRET usually uses a lanthanide donor and a delayed reading to cut background.

Assay [2] relates to Human Umbilical Vein Endothelial Cells (HUVECs). The assay can be described thus: Inhibition against sandwich tube formation by vascular endothelial cells in response to stimulation by VEGF. Format: cell-based. To be noted: HUVEC in collagen gel sandwich, stimulation by VEGF (25 ng/ml VEGF and 10 ng/ml EGF), 4th day, total tube length, read-out: IC50 (concentration required for 50% inhibition of tube formation). The method, boiled down: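 HUVECs were sandwiched between collagen gel layers in serum-free medium with 25 ng/ml VEGF plus 10 ng/ml EGF, with test substance added above the gel at 37 °C. On day 4 tubes were MTT-stained and total tube length measured by image analysis. IC50 is the concentration halving tube length relative to no-compound wells.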

T1 sequence (P35968 786-1356 limits assumed): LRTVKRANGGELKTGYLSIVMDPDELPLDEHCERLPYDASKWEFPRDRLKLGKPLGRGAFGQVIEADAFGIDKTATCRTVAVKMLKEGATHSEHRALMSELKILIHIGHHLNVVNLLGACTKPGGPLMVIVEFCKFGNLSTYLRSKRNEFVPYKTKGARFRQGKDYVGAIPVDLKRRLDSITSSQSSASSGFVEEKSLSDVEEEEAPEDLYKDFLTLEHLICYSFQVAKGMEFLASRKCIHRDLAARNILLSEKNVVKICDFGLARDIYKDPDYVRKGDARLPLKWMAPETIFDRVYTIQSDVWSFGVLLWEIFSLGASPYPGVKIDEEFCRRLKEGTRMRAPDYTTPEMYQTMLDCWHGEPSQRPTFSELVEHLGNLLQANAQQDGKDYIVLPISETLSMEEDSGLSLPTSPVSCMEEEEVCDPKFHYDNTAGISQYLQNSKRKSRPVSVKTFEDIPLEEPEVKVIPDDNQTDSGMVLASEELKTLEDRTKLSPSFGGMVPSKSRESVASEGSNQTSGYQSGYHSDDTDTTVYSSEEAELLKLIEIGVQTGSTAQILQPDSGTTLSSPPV

For the compound `COCCOc1cc2nccc(Oc3ccc(NC(=O)Nc4nccs4)c(F)c3)c2cc1C#N` [Example 25, N-(4-(6-cyano-7-(2-methoxyethoxy)-4-quinolyl)oxy-2-fluorophenyl)-N′-(1,3-thiazol-2-yl)urea], in assay [1], the “number of tubes formed in the fibrin gel (score) at 0.01 μM” value is given as “++”, the “number of tubes formed in the fibrin gel (score) at 0.1 μM” value is listed as “+/−” and the “number of tubes formed in the fibrin gel (score) at 1.0 μM” value was “+/−”. Also, the IC50 on VEGFR2 worked out at 5.5 nM.

With `COc1cc2nccc(Oc3ccc(N(C)C(=O)Nc4ccc(F)cc4)cc3)c2cc1C(N)=O` [Example 348], in assay [1], the “number of tubes formed in the fibrin gel (score) at 0.01 μM” value was “+/−”, the “number of tubes formed in the fibrin gel (score) at 0.1 μM” value is reported as “−” and the “number of tubes formed in the fibrin gel (score) at 1.0 μM” value was “−”. Also, at VEGFR2, the IC50 turned out to be 4.6 nM.

For `CCCC(=O)Nc1cc(Oc2ccc(NC(=O)Nc3ccc(F)cc3)cc2)ccn1` [Example 463, N-[4-(2-Butanoylaminopyridin-4-yl)oxyphenyl]-N′-(4-fluorophenyl)urea], the IC50 in assay [2] turned out to be 26 nM; on VEGFR2, 5.9 nM.
